Assay results published in US20140213508A1, “ANTIVIRAL MACROCYCLES” (priority 2012, published 2014).
Read-outs that look alike come from different tables or passages of the source. Numbered stars: 1 amine (or outer) side, 2 acyl side, 3 side chain; on linkers, the order of the positions; unused ones are H or OH. Square brackets hold non-standard residues; d marks the D form. Peptide text beside a SMILES is read from it. ξ: configuration not given here. X1 = CN(C)C1(CS[C@H](C(=O)[*:2])N(C)[*:1])CCC1; ξNMeBmt = C/C=C/C[C@@H](C)[C@@H](O)C(NC)C(=O)O; X2 = CC(C)[C@H](C(=O)[*:2])N(Cc1ccccc1)[*:1]; X3 = CCNC1(CS[C@H](C(=O)[*:2])N(C)[*:1])CC1; X4 = CNC1(CS[C@H](C(=O)[*:2])N(C)[*:1])CC1; NMeLeu(4-OH) = CN[C@@H](CC(C)(C)O)C(=O)O; NMeL = CN[C@@H](CC(C)C)C(=O)O; dNMeL = CN[C@H](CC(C)C)C(=O)O; dNMeV = CN[C@@H](C(=O)O)C(C)C; dAbu = CC[C@@H](N)C(=O)O

Experiments:
[1] = system: IFN-λ1 (IL-29) production in human peripheral blood mononuclear cells; experiment: IL-29 production in human PBMCs (ELISA); type: cell-based; conditions: 2 μM for 24 hours; for pg/mL IL29 Av.: average; for pg/mL IL29: individual wells
[2] = system: IFN-α production in human peripheral blood mononuclear cells; experiment: IFN-α production in human PBMCs (ELISA); type: cell-based; conditions: 2 μM for 24 hours, individual wells
Procedure: Cryopreserved commercial or previously isolated PBMCs from HCV donors cryopreserved in RPMI1640)/Fetal Bovine/DMSO solution (50/40/10 v/v) were tested with compounds provided herein. […]
PBMC were cultured for 24 hours at 37° C. in RPMI cell culture medium in flat bottom 48 well-plates. Each well received 180 μL of cell suspension (2×10^6 cells/mL). […] At the end of the incubation, the plates are centrifuged at 200 times g for 5 minutes. The cell supernatants are collected and assayed by ELISA for cytokines IFN-α's (the detection reagent recognized 14 of the 15 known human IFN-α subtypes) and IFN-λ1 (IL-29). The cell pellet is washed twice with cold PBS and ATP content are determined by adding 100 μL per well of the Cell Titer Glo® (Promega, Madison, Wis.). Plates are then placed at −80° C. until protein analysis. For the protein analysis, plates are thawed, scraped and the protein content of the cell suspension determined using BCA Protein Assay Kit (23227, ThermoScientific, Rockford Ill.).

[3] = system: IFN-α production in human peripheral blood mononuclear cells; experiment: IFN-α production in human PBMCs (ELISA); type: cell-based; conditions: 2 μM for 24 hours; for pg/mL IFNα Av.: average; for pg/mL IFNα: individual wells
[4] = system: HBV entry into cultured hepatocytes (HepaRG cells); experiment: Inhibition of HBV entry into HepaRG cells; type: cell-based; conditions: Hepatitis B virus, 288 h, read-out: IC50 HBV entry
[5] = system: Dengue virus DENV1 strain; experiment: Dengue virus infection and replication assay in HuH7 cells; type: cell-based; conditions: read-out: IC50 Dengue virus production
Procedure: Compounds A, B, and F were tested for activity against Dengue virus in a cell-based assay of viral infection and replication. HuH7 cells were infected with the DENV1 strain (multiplicity of infection=0.1). After a 1 hour incubation to allow viral attachment and infection, compounds were added (at concentrations of 1, 3 and 9 μM, in triplicate). Incubation was continued for 5 days, and cells and media were then harvested for analysis. Viral replication was assessed by a real-time RT-PCR assay for virus present in the media, and cells were assayed for metabolic viability (MTT assay).

[6] = system: Influenza A H1N1 (A/CA/05/09); experiment: Anti-influenza virus cytoprotection assay in MDCK cells; type: cell-based; conditions: in triplicate, read-out: IC50 against Influenza A H1N1
Cyclophilin B = Cyclophilin B (Homo sapiens, UniProt P23284); experiment: Cyclophilin binding competitive ELISA; conditions: human recombinant cyclophilin
Cyclophilin B, sequence (P23284 34-216): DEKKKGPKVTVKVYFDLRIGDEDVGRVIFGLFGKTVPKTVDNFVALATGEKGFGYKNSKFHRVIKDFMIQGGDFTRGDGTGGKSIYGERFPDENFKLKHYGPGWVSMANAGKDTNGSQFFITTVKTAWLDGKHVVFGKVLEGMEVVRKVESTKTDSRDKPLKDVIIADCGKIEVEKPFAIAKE
From the text: Plates were washed as described above. […] Plates were washed as described above.

[7] = system: HCV RNA replicon Genotype 1b; experiment: HCV replicon assay, 1b replicon (LUC); conditions: Hepatitis C virus, 72 h, read-out: mean EC50 Genotype 1b
From the text: Compounds were examined in the human hepatoma cell a HCV RNA replicon containing a stable luciferase (LUC) reporter. The HCV RNA replicon ET contains the 5′ end of HCV (with the HCV Internal Ribosome Entry Site (IRES) and the first few amino acids of the HCV core protein) which drives the production of neomycin phosphotransferase (NeoR) fusion protein. A luciferase reported is incorporated into 1b replicon. The EMCV IRES element controls the translation of the HCV structural proteins NS3-NS5. The NS3 protein cleaves the HCV polyprotein to release the mature NS3, NS4A, NS4B, NS5A and NS5B proteins that are required for HCV replication. At the 3′ end of the replicon is the authentic 3′ NTR of HCV. The activity of the LUC reporter is directly proportional to HCV replication levels and positive-control antiviral compounds produce a reproducible antiviral response using the LUC endpoint.
The compounds were dissolved in DMSO at six half-log concentrations. HCV replicon cells were plated out into 96 well plates dedicated for the analysis of cell numbers (cytotoxicity) or antiviral activity and the next day the compounds were added to the appropriate wells. […] Compound EC50 and EC90 values were derived from HCV RNA levels assessed as HCV RNA replicon derived LUC activity. […] Compound IC50 and IC90 values were calculated using a colorimetric assay as an indication of cell numbers and cytotoxicity. […]

Cyclophilin A = Cyclophilin A (Homo sapiens, UniProt P62937); experiment: Cyclophilin binding competitive ELISA; conditions: human recombinant cyclophilin
Cyclophilin A, sequence (P62937 whole entry): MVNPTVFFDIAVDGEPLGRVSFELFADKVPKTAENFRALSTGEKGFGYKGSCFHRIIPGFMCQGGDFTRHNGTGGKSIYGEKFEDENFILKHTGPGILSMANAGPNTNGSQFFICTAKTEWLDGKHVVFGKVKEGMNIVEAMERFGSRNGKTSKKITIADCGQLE

[8] = donor CT2 (test 3) (HCV, cryopreserved PBMCs)
[9] = HepaRG cells, HBs level by ELISA 12 days post-infection
[10] = donor Healthy 2, background subtracted

Structure (SMILES) | pg/mL IL29 ([1]; donor Healthy 1) | pg/mL IL29 Av. ([1]; donor Healthy 3) | pg/mL IL29 ([1]; donor Healthy 3) | pg/mL IFNα [2, 8] [pg/mL] | pg/mL IFNα Av. ([3]; donor Healthy 1) | pg/mL IFNα ([3]; donor Healthy 1) | pg/mL IFNα Av. ([3]; donor Healthy 2) | pg/mL IFNα ([3]; donor Healthy 2) | pg/mL IFNα Av. ([3]; donor Healthy 3) | pg/mL IFNα ([3]; donor Healthy 3) | IC50 [4, 9] [nM] | IC50 ([5]; DENV1, Huh-7, 120 h) [nM] | IC50 (Cyclophilin B) [nM] | EC50 [7] [nM] | IC50 (Cyclophilin A) [nM] | also measured
CC=CC[C@@H](C)[C@@H](O)C1C(=O)NC(CC)C(=O)N(C)C(SCC2(N(C)C)CC2)C(=O)N(C)[C@@H](CC(C)(C)O)C(=O)NC(C(C)C)C(=O)N(C)C(CC(C)C)C(=O)NC(C)C(=O)NC(C)C(=O)N(C)C(CC(C)C)C(=O)N(C)C(CC(C)C)C(=O)N(C)C(C(C)C)C(=O)N1C (stereo in doubt) [Compound A] | <LOQ | <LOQ | <LOQ | 7 | <LOQ | <LOQ | <LOQ | <LOQ | <LOQ | <LOQ | 1600 | > 9000 | – | – | – | pg/mL IL29 Av. ([1]; donor Healthy 1): <LOQ; pg/mL IFNα ([2]; donor CT2 (HCV), first test): 4 pg/mL
CC=CC[C@@H](C)[C@@H](O)C1C(=O)NC(CC)C(=O)N(C)C(SCC2(N(C)C(C)C)CC2)C(=O)N(C)[C@@H](CC(C)(C)O)C(=O)NC(C(C)C)C(=O)N(C)C(CC(C)C)C(=O)NC(C)C(=O)NC(C)C(=O)N(C)C(CC(C)C)C(=O)N(C)C(CC(C)C)C(=O)N(C)C(C(C)C)C(=O)N1C (stereo in doubt) [Compound B] | 20 pg/mL and <LOQ | <LOQ | <LOQ | 8 | <LOQ | <LOQ | <LOQ | <LOQ | <LOQ | <LOQ | < 1000 | – | – | – | – | pg/mL IL29 Av. [1, 10]: <LOQ; pg/mL IL29 [1, 10]: <LOQ; IC50 ([5]; Huh-7, 120 h, HuH7 cells, DENV1, 5 days, real-time RT-PCR of media): 1000 nM
C/C=C/C[C@@H](C)[C@@H](O)C1C(=O)N[C@H](CC)C(=O)N(C)[C@H](SCC2(N(C)C)CCC2)C(=O)N(C)[C@@H](CC(C)C)C(=O)N(Cc2ccccc2)[C@H](C(C)C)C(=O)N(C)[C@H](CC(C)C)C(=O)N[C@H](C)C(=O)N[C@@H](C)C(=O)N(C)[C@H](CC(C)C)C(=O)N(C)[C@H](CC(C)C)C(=O)N(C)[C@H](C(C)C)C(=O)N1C (stereo partly shown) [Compound F] (cyclo(A[dNMeL][dNMeL][dNMeV][ξNMeBmt][dAbu][X1][NMeL][X2][dNMeL][dA])) | – | – | – | – | – | – | – | – | – | – | – | 1400 | – | – | – | IC50 ([4]; HepaRG): < 1000 nM; IC50 [6]: 5400 nM
C/C=C/C[C@@H](C)[C@@H](O)C1C(=O)N[C@H](CC)C(=O)N(C)[C@H](SCC2(NC)CC2)C(=O)N(C)[C@@H](CC(C)(C)O)C(=O)N[C@H](C(C)C)C(=O)N(C)[C@H](CC(C)C)C(=O)N[C@H](C)C(=O)N[C@@H](C)C(=O)N(C)[C@H](CC(C)C)C(=O)N(C)[C@H](CC(C)C)C(=O)N(C)[C@H](C(C)C)C(=O)N1C (stereo partly shown) [Compound G] (cyclo(A[dNMeL][dNMeL][dNMeV][ξNMeBmt][dAbu][X4][NMeLeu(4-OH)][dV][dNMeL][dA])) | – | – | – | – | – | – | – | – | – | – | – | – | 50 | 60 | 29 | –
C/C=C/C[C@@H](C)[C@@H](O)C1C(=O)N[C@H](CC)C(=O)N(C)[C@H](SCC2(NCC)CC2)C(=O)N(C)[C@@H](CC(C)(C)O)C(=O)N[C@H](C(C)C)C(=O)N(C)[C@H](CC(C)C)C(=O)N[C@H](C)C(=O)N[C@@H](C)C(=O)N(C)[C@H](CC(C)C)C(=O)N(C)[C@H](CC(C)C)C(=O)N(C)[C@H](C(C)C)C(=O)N1C (stereo partly shown) [Compound H] (cyclo(A[dNMeL][dNMeL][dNMeV][ξNMeBmt][dAbu][X3][NMeLeu(4-OH)][dV][dNMeL][dA])) | – | – | – | – | – | – | – | – | – | – | – | – | 16 | 40 | 14 | –
